Laboratory results taken from patent publication US10154974B1, “Use of abscisic acid for the prevention and treatment of malaria” (The Regents of the University of California, priority 2015, dated 2018).

Test system: P. falciparum
Assay: P. falciparum infection of A. stephensi fed a supplemented infected bloodmeal
Assay type: in vivo
Protocol: For P. falciparum infections A. stephensi were fed on a 1:1 ratio of P. falciparum-infected RBCs containing a treatment or diluent control and provided in a Hemotek Insect Feeding System (Discovery Workshops). ABA was eluted in 100% ethanol and stored at −20 C for up to 6 months. ABA stock was diluted with PBS and added into blood immediately before feeding for final concentrations of 10 nM and 100 nM. For L-NAME feeds mosquitoes were maintained on sugar cubes and water pads containing 1 mg/mL L-NAME for 72 hours before the feed and throughout the course of infection. Infection prevalence data were analyzed by Fisher's Exact Test. Oocyst intensities were analyzed by Mann-Whitney test.

With `COC(=O)[C@@H](N)CCCNC(=N)N[N+](=O)[O-]` [L-NAME, Nω-Nitro-L-arginine methyl ester, reference compound] the “P. falciparum infection prevalence” value (1 mg/ml L-NAME added to 100 nM ABA-supplemented infected bloodmeal) was “rescued P. falciparum infection prevalence back to control levels” and the P. falciparum infection (1 mg/ml L-NAME alone) was “no effect”.
